Consider one molecule from patent EP1082333B1, “THIOCO[…], PREPARATION AND THERAPEUTIC APPLICATION” (SANOFI-SYNTHELABO, priority 1998, dated 1999).

This experiment deals with réflexe polysynaptique. The experiment can be described thus: Inhibition of the polysynaptic reflex in the normal rat (RPRN), EMG of biceps femoris. It is filed as in vivo. The conditions noted are these: 10 mg/kg, voie i.p. The source says: L'activité décontraccurante du composé de l'invention a été déterminée par l'inhibition du réflexe polysynaptique chez le rat normal (RPRN). L'animal est placé en contention en décubitus ventral. Les membres postérieurs sont immobilisés. Les réflexes polysynaptiques sont évoqués dans le muscle Biceps fémoral (fléchisseur de la cuisse) par stimulation électrique de la voûte plantaire (territoire cutané du nerf sural). L'EMG (Electro-Myo-Graphie) est recueilli par deux électrodes en acier inoxydable insérées dans le muscle parallélement aux fibres.
Les électrodes de stimulation en acier inoxydable sont insérées en position sous-cutanée. La stimulation consiste en un choc électrique carré de 0.2-0.4 ms de durée et de 0.2 Hz de fréquence. L'intensité de la stimulation est réglée pour obtenir des réflexes bien constitués et de surface stable (8-12 mA).
L'EMG est amplifié. La surface de chaque réflexe est mesurée.
Des séries de 20 réflexes sont enregistrées toutes les 15 minutes. La surface des 20 réflexes de chaque série est moyennée.
Après plusieurs séries contrôles, le produit à étudier est administré. La moyenne des 20 premières réponses contrôles est prise pour 100 %. L'évolution des réponses EMG est suivie alors pendant 2 ou 3 heures.

As to `COc1c(OC2OC(C(=O)O)C(O)C(O)C2O)cc2c(c1OC)-c1ccc(SC)c(=O)cc1C(NC(C)=O)CC2` (stereo not shown) [composé de l'invention], the “inhibe le réflexe polysynaptique” value was 78%.
